According to patent US20210261513A1, “4-SUBSTITUTED PHENYL-1,3,5-TRIAZINE DERIVATIVES AS MODULATORS OF TRK RECEPTORS” (ALZECURE PHARMA AB, priority 2018, published 2021):

Assays:
[1] = biological target: T1, TrkA (Homo sapiens, UniProt P04629); experiment: cell-based Enzyme Fragment Complementation (EFC) assay, U2OS cells over-expressing TrkA; details: compound pre-mixed with ligand (NGF), final ligand concentration 10 ng/mL, 3 hours at room temperature, read-out: TrkA potency expressed as EC50
T1 construct: expressed in transfected cells; host or cells: U2OS
Description: (§1) A high throughput cell-based screen has been used to identify positive modulators of TrkA and TrkB. The screen involves the use of cell-based assay overexpressing TrkA or TrkB. The purpose of the assay is to identify compounds that modulate neurotrophin signalling (Forsell et al 2012). The assay can be used in inhibitor mode using a high concentration of ligand, in modulator mode using an intermediate concentration and in agonist mode using a low concentration of ligand.
(§2) The assay uses Enzyme Fragment Complementation (EFC) technique, which is a proximity-based assay. Briefly, cells used in this assay over-express two fusion proteins, i.e. the receptor, which can be either of TrkA or TrkB, fused to a small peptide of beta-galactosidase and an adaptor protein, i.e. SHC1 (or any other Trk-adaptor protein) fused to the major part of beta-galactosidase. […] The proximity between the small activating peptide on the receptor and the major part of beta-galactosidase on the adaptor protein leads to an active beta-galactosidase enzyme. The activation of the receptor is quantified by measuring the amount of active beta-galactosidase by its conversion of a non-luminescent substrate into a luminescent product.
(§3) U2OS-cells, over-expressing TrkA or TrkB, are plated in 96- or 384-well plates and incubated overnight. On the following day, test compound was pre-mixed with ligand (NGF) and the ligand-compound mixture is then added to the cells to yield a final ligand concentration of 10 ng/mL. After 3 hours of incubation at room temperature, the incubation is stopped by the addition of a beta-galactosidase substrate mixture containing detergents. The substrate mixture is incubated for 60 minutes at ambient temperature. The luminescence is thereafter read by the use of a plate reader.

[2] = biological target: T2, TrkB (Homo sapiens, UniProt Q16620); experiment: cell-based Enzyme Fragment Complementation (EFC) assay, U2OS cells over-expressing TrkB; details: compound pre-mixed with ligand (NGF), final ligand concentration 10 ng/mL, 3 hours at room temperature, read-out: TrkB potency expressed as EC50
T2 construct: expressed in transfected cells; host or cells: U2OS
Description: as §1, §2, §3

[3] = tested on: ephrin type-B receptor 2 (EphB2); details: Suzuki et al., FEBS Open Bio 2016; cited from earlier work

T2 sequence (Q16620 32-822): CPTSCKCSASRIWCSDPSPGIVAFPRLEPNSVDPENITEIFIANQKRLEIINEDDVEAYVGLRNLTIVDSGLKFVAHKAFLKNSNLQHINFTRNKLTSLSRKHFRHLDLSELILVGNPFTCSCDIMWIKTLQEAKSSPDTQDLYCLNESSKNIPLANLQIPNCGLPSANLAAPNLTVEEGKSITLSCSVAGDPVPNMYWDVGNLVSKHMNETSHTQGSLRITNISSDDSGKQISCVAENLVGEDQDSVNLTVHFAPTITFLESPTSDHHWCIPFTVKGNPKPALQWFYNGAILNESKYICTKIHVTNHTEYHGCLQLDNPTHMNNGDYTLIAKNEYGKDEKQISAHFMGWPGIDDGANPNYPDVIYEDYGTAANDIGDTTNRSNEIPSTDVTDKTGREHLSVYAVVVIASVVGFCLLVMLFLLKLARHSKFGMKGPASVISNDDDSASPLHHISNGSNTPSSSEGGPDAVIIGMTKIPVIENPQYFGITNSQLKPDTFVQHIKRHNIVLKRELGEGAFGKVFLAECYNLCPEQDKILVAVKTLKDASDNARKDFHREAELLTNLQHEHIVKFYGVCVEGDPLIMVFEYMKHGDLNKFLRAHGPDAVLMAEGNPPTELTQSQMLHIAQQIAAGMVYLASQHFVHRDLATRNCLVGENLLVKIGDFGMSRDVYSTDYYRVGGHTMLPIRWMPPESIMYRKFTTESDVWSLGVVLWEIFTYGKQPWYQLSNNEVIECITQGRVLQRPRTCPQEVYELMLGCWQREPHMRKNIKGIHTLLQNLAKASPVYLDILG
T1 sequence (P04629 33-796): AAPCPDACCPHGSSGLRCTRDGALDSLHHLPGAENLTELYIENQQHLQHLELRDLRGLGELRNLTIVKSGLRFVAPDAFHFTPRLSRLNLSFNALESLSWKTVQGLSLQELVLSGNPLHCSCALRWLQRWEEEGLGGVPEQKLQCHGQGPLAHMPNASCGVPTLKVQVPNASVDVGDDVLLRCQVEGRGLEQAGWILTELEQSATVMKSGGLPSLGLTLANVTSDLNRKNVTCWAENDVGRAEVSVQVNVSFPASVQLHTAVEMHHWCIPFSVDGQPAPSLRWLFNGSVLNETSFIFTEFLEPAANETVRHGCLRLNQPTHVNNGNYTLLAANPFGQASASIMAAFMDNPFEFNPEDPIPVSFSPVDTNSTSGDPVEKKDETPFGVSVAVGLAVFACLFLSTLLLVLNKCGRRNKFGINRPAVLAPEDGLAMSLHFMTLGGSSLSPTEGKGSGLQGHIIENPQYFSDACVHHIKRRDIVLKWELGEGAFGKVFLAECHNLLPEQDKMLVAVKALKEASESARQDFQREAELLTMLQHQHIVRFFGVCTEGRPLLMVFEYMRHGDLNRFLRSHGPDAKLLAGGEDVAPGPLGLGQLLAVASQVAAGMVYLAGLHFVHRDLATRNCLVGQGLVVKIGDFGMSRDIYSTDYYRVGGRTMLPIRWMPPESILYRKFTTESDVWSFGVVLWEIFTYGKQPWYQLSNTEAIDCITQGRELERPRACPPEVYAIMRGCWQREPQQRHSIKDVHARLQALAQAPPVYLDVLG

Compound	EC50 [1]	EC50 [2]	inhibits the binding of p-amyloid oligomers to ephrin type-B receptor 2 (EphB2) [3]
Cc1cc(-n2c(=O)[nH]c(=O)n(-c3ccccc3)c2=O)ccc1-n1cccn1 [Example 8, 1-[3-methyl-4-(1H-pyrazol-1-yl)phenyl]-3-phenyl-1,3,5-triazinane-2,4,6-trione]	5560 nM	6220 nM	
Cc1cccc(-n2c(=O)[nH]c(=O)n(-c3ccc(-n4cccc4)c(C)c3)c2=O)c1 [Example 11, 1-[3-methyl-4-(1H-pyrrol-1-yl)phenyl]-3-(3-methylphenyl)-1,3,5-triazinane-2,4,6-trione]	100 nM	70 nM	
Cc1cc(-n2c(=O)[nH]c(=O)n(-c3ccccc3)c2=O)ccc1-n1cccc1 [Example 6, 1-[3-methyl-4-(1H-pyrrol-1-yl)phenyl]-3-phenyl-1,3,5-triazinane-2,4,6-trione]	240 nM	250 nM	
Cc1cc(-n2c(=O)[nH]c(=O)n(-c3ccccc3)c2=O)ccc1N1CCCCC1 [Example 2, 1-[3-methyl-4-(piperidin-1-yl)phenyl]-3-phenyl-1,3,5-triazinane-2,4,6-trione]	1050 nM	1270 nM	
Cc1cc(-n2c(=O)[nH]c(=O)n(C)c2=O)ccc1Oc1ccc(SC(F)(F)F)cc1 [toltrazuril, 1-methyl-3-(3-methyl-4-{4-[(trifluoromethyl)sulfanyl]phenoxy}phenyl)-1,3,5-triazinane-2,4,6-trione]			30%

Second part, led by results:

EC50 [1]	EC50 [2]	Compound	inhibits the binding of p-amyloid oligomers to ephrin type-B receptor 2 (EphB2) [3]
7200 nM	3000 nM	CCc1ccc(-c2ccc(-n3c(=O)[nH]c(=O)n(C)c3=O)cc2C)cc1 [Example 5, 1-{4′-ethyl-2-methyl-[1,1′-biphenyl]-4-yl}-3-methyl-1,3,5-triazinane-2,4,6-trione]	
6710 nM	20600 nM	Cc1cc(-n2c(=O)[nH]c(=O)n(C)c2=O)ccc1-c1ccccc1 [Example 7, 1-methyl-3-{2-methyl-[1,1′-biphenyl]-4-yl}-1,3,5-triazinane-2,4,6-trione]	
180 nM	90 nM	Cc1cc(-n2c(=O)[nH]c(=O)n(-c3ccccc3)c2=O)ccc1-c1ccccc1 [Example 1, 1-{2-methyl-[1,1′-biphenyl]-4-yl}-3-phenyl-1,3,5-triazinane-2,4,6-trione]	
7050 nM	7900 nM	Cc1cc(-n2c(=O)[nH]c(=O)n(-c3ccccc3)c2=O)ccc1C(C)C [Example 3, 1-[3-methyl-4-(propan-2-yl)phenyl]-3-phenyl-1,3,5-triazinane-2,4,6-trione]	
6770 nM	2080 nM	Cc1ccc(-c2ccc(-n3c(=O)[nH]c(=O)n(-c4ccccc4)c3=O)cc2C)o1 [Example 4, 1-[3-methyl-4-(5-methylfuran-2-yl)phenyl]-3-phenyl-1,3,5-triazinane-2,4,6-trione]	
